Laboratory results from PubChem BioAssay AID463206 (Broad Institute, 2010).
Activity calls are given as the source filed them.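 How the source made its calls: active means caspase luminescence falls with dose and the half-maximal concentration AC50 from the fitted curve is at or below a set limit; inconclusive means flat fit at 30 to 70% signal loss, or invalid fit; inactive means AC50 above the limit, or signal rises instead.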

Test system: INS-1E cytokine-induced caspase-3/7, Caspase-Glo luminescence, 48 h
Test: suppression of cytokine-driven beta-cell apoptosis – INS-1E rat cells, luminescence, orthogonal assay for beta-cell apoptosis protection project, dose response (AID 463206)

Structure (SMILES) | AC50
O=C(c1ccccc1)c1c2c(cc3sc4ccccc4[n+]13)-c1cccc3cccc-2c13 | > 26 µM (inactive)
CCC(=O)NC(c1ccc(OC)cc1)c1cc(Cl)c2cccnc2c1O (stereo unspecified) | > 26 µM (inactive)
Cc1ccc(-c2nc(NC(=O)c3nn(C)cc3[N+](=O)[O-])sc2C)cc1C | > 26 µM (inactive)
O=C(CCCN1C(=O)/C(=C/c2ccccc2)SC1=S)NCCCn1ccnc1 | > 26 µM (inactive)
COc1ccc(O)c(/C=N/NC(=O)c2cccc(N3CCCC3=O)c2)c1 | > 26 µM (inactive)
C(C#CCCCCCCCCC[n+]1ccccc1)#CCCCCCCCCC[n+]1ccccc1 | > 26 µM (inactive)
Oc1cccc(/C=N/NC(=S)Nc2cccnc2)c1O | > 26 µM (inactive)
CN(c1ccccc1)S(=O)(=O)c1ccc(NC(=O)c2nc(S(C)(=O)=O)ncc2Cl)cc1 | > 26 µM (inactive)
COc1ccc(-[n+]2c(C)cc(/C=C3\Sc4ccccc4N3C)cc2C)cc1 | > 26 µM (inactive)
Oc1c(C(Nc2ccccn2)c2ccccn2)ccc2cccnc12 (stereo unspecified) | > 12 µM (inactive)
Cc1sc2ncnc(N/N=C/c3ccccc3O)c2c1C | > 26 µM (inactive)
Cc1onc(-c2c(Cl)cccc2Cl)c1C(=O)N/N=C(\N)COc1ccc(Cl)cc1 | > 26 µM (inactive)
COc1ccc(OC)c(NC(=O)c2nc(S(=O)(=O)Cc3ccccc3)ncc2Cl)c1 | > 26 µM (inactive)
CC(C)(C)C1CCC2(CC1)C(C#N)=C(SCC(=O)NC1CCCCC1)NC(=O)C2C#N (stereo unspecified) | > 26 µM (inactive)
NS(=O)(=O)c1ccc(N=Nc2ccc(O)c3ncccc23)cc1 | > 26 µM (inactive)
N#C/C(=C/c1ccc(N2CCCCCC2)o1)c1ccc(Cl)cc1 | > 26 µM (inactive)
COc1cc(Cl)c(NC2=CC(=O)C(=O)c3ccccc32)c(OC)c1 | > 26 µM (inactive)
COc1cc(Br)cc(/C=N/NC(=O)Cc2ccc(C(F)(F)F)cc2[N+](=O)[O-])c1O | > 26 µM (inactive)
c1ccc2c(c1)ncn2CCCOc1ccc2c(c1)CCC2 | > 26 µM (inactive)
CN(C)c1ccc(NC(=S)NC23CC4CC(CC(C4)C2)C3)cc1 | > 26 µM (inactive)
O=[N+]([O-])c1ccc(O)c(/C=N/NC(=S)Nc2ccc(Cl)cc2Cl)c1 | > 26 µM (inactive)
Cc1nc2c3cc(F)ccc3n(Cc3ccccc3)c2s1 | > 26 µM (inactive)
Cc1ccc(-c2cc(-c3ccc(C)cc3)[n+](-c3ccccc3)c(-c3ccc(C)cc3)c2)cc1 | > 26 µM (inactive)
O=C(/C(=C/c1ccc(Cl)cc1)c1nc2ccccc2[nH]1)c1ccccc1 | > 26 µM (inactive)

Structure (SMILES) | AC50
O=S(=O)(c1ccc(F)c(F)c1F)N1CCN(c2ncnc3sccc23)CC1 | > 26 µM (inactive)
Brc1ccc(-[n+]2c(-c3ccccc3)cc(-c3ccccc3)cc2-c2ccccc2)cc1 | > 26 µM (inactive)
O=C(c1ccc(Cl)cc1)C(CN1CCCCC1)c1ccccc1 (stereo unspecified) | > 26 µM (inactive)
c1ccc(CNc2c(-c3cccc(SC4CCCCC4)c3)nc3ccccn23)cc1 | > 26 µM (inactive)
Nc1nc(-c2ccccn2)nc(N)c1Cc1ccc(Cl)cc1Cl | > 26 µM (inactive)
CC(C)(C)c1cc(C(=O)N/N=C/c2ccc([N+](=O)[O-])s2)n[nH]1 | > 26 µM (inactive)
O=C(c1cccnc1)N(c1cc2sc(=O)oc2c2ccccc12)S(=O)(=O)c1ccccc1 | > 26 µM (inactive)
Cc1sc2ncnc(NCC(C)(C)N3CCOCC3)c2c1C | > 26 µM (inactive)
O=C(N/N=C/c1ccccc1O)/C(=C/c1ccccc1)CCO | > 26 µM (inactive)
CCOc1ccc(-n2c(-c3ccc(Br)cc3)c[n+]3c2CCCCC3)cc1 | > 26 µM (inactive)
CCOc1ccc(C(Nc2cccnc2)c2cc(Cl)c3cccnc3c2O)cc1 (stereo unspecified) | > 26 µM (inactive)
O=C(N/N=C/c1ccccc1O)C1CC(=O)N(c2ccc(Cl)cc2)C1 (stereo unspecified) | > 26 µM (inactive)
COc1nc(Nc2nc3ccccc3c(=O)[nH]2)nc2ccc(C)cc12 | > 26 µM (inactive)
Cc1cc(C)c(S(=O)(=O)/N=C2/C=C(Sc3ncn[nH]3)C(=O)c3ccccc32)cc1C | > 26 µM (inactive)
CCC(CO)Oc1cc(NCc2ccc(C)c(C)c2)c2ncn(C(C)C)c2c1 (stereo unspecified) | > 26 µM (inactive)
CN(C)C1=NC[C@H](Cc2ccccc2)N1CCCC1CCCCC1 | > 26 µM (inactive)
CC(=O)c1ccc(NC(=S)NCc2cccnc2)cc1 | > 26 µM (inactive)
O=C(O)CCCC(=O)Nc1ccc(C(=O)NCc2cccnc2)cc1 | > 26 µM (inactive)
Cc1cc(N)c2cc(NC(=O)/C=C/c3ccccc3Cl)ccc2n1 | 23 µM
CC(C)Oc1ccc(C(CCN)C2CCCCC2)cc1 (stereo unspecified) | > 26 µM (inactive)
Cc1c(C)c2cccnc2c2ncccc12 | > 26 µM (inactive)
CCCCC[n+]1cccc2c3ccccc3ccc21 | > 26 µM (inactive)
O=c1[nH]c(=O)n(Cc2ccco2)c2c1C(C(F)(F)F)(C(F)(F)F)N=C(c1ccc(F)cc1)N2 | > 26 µM (inactive)
Cc1cc(N/N=C/c2c(O)ccc3ccccc23)nc(-c2ccccc2O)n1 | > 26 µM (inactive)

Structure (SMILES) | AC50
O=C(NCCc1ccccc1)[C@@H]1CC=C[C@@H]2CCN(Cc3ccc(Cl)c(Cl)c3)C(=O)[C@@H]21 | > 12 µM (inactive)
Cc1cc(C)cc(OCCCn2ccnc2)c1 | > 26 µM (inactive)
O=C(Nc1cccc(Cl)c1)Nc1nnc(CSCCOc2ccc(Cl)cc2)s1 | > 26 µM (inactive)
CCC(C)(C)c1ccc(OCCCC[n+]2ccc(C)cc2)c(C(C)(C)CC)c1 | > 26 µM (inactive)
O=C(Nc1ccc(-c2csc(Nc3cccc(C(F)(F)F)c3)n2)cc1)c1cc([N+](=O)[O-])cc(C(F)(F)F)c1 | > 26 µM (inactive)
C/C(=N\NC(=O)c1ccc(Cl)cc1)c1ccccn1 | > 26 µM (inactive)
CCCCNc1c(-c2cccc(-c3ccc(OC)cc3)c2)nc2ccc(C)cn12 | > 26 µM (inactive)
Clc1ccc(-c2cc(-c3nnc4n3CCCCC4)c3ccccc3n2)cc1 | > 26 µM (inactive)
C#CC[N+](C)(C)CCCCCCCCCCCC | > 26 µM (inactive)
O=C(N/N=C/c1cc(Cl)ccc1O)C(=O)Nc1ccccc1OC(F)(F)C(F)F | > 26 µM (inactive)
NC(=NCCCCCCN=C(N)/N=C(\N)Nc1ccc(Cl)cc1)/N=C(\N)Nc1ccc(Cl)cc1 | > 26 µM (inactive)
Cc1ccccc1Oc1nc(-c2ccccn2)nc2ccccc12 | > 26 µM (inactive)
CN(C)CCCNc1cc(C(C)(C)C)nc2c(-c3ccccc3)cnn12 | > 26 µM (inactive)
CCc1ccc(CN(C)C(=O)c2cc(COc3cccc4cnccc34)on2)cc1 | > 26 µM (inactive)
FC(F)Sc1ccc(N=C2NN=C(c3ccc4c(c3)OCCO4)CS2)cc1 | > 26 µM (inactive)
O=C(Nc1ccc(Cl)cc1)Nc1csc([N+](=O)[O-])c1 | > 26 µM (inactive)
CCn1nc(C)c(CNC(=O)c2ccc(OC3CCN(Cc4ccccn4)CC3)cc2)c1C | > 26 µM (inactive)
Nc1c(C(=O)Nc2ccc(S(=O)(=O)N3CCCC3)cc2)sc2nc3ccc(OC(F)(F)F)cc3cc12 | > 26 µM (inactive)
CC(C)(C)c1ccc(-n2ncc3c2CCCC3NC(=O)C2(C(N)=O)CC2)cc1 (stereo unspecified) | > 26 µM (inactive)
Cc1cc(C)c2c(N)c3cccc(C)c3nc2n1 | 4.47 µM
CCCC(=O)NC(c1ccccc1Cl)c1ccc2cccnc2c1O (stereo unspecified) | > 26 µM (inactive)
Cc1ccc(C(=O)N/C(=C\c2ccc(-c3ccc(Cl)cc3)o2)C(=O)NCCCN(C)C)cc1 | 11.9 µM
CNc1nc(N/N=C/c2cc3c(cc2[N+](=O)[O-])OCO3)nc(Nc2ccccc2)n1 | > 26 µM (inactive)
O=C(N/N=C(\c1ccccc1)c1ccccn1)c1ccccc1Cl | > 26 µM (inactive)

Structure (SMILES) | AC50
CC(=O)N1CCCc2cc(S(=O)(=O)N3CCCC(C(=O)N4CCN(c5cccc(Cl)c5)CC4)C3)ccc21 (stereo unspecified) | > 26 µM (inactive)
CC(O)CNc1nc2sc3c(c2c(=O)n1Cc1ccco1)CCCCC3 (stereo unspecified) | > 12 µM (inactive)
c1ccc(CSc2ccc(-c3ccccn3)nn2)cc1 | > 26 µM (inactive)
N#CC(C#N)=C1C=CC=CN1/C(=C\c1ccco1)C(=O)c1ccc(Br)cc1 | > 26 µM (inactive)
Clc1ccc(CSc2ccc(-c3ccccn3)nn2)cc1 | > 26 µM (inactive)
N#Cc1ccc(-c2csc(NNC(=O)c3ccccc3)n2)cc1 | > 26 µM (inactive)
C(=N\Nc1ncnc2sc3c(c12)CCC3)/c1cccs1 | > 26 µM (inactive)
c1ccc(CCNc2nc(-c3ccccn3)nc3ccccc23)cc1 | > 26 µM (inactive)
NC(=S)N/N=C/c1ccccc1O | > 26 µM (inactive)
Oc1ccc(Nc2nc(-c3ccc4ccccc4c3)cs2)cc1 | > 26 µM (inactive)
CNC[C@H](Cc1ccccc1)NC[C@@H](Cc1cccc2ccccc12)NCCc1ccc(C)cc1 | > 26 µM (inactive)
O=C(COc1ccccc1-c1ccccc1)N/N=C/c1ccc2ccccc2c1 | > 12 µM (inactive)
COc1ccc2c(c1)C(=O)[C@@H](O)[C@H](c1ccc(OC)c(Br)c1)O2 | > 26 µM (inactive)
COc1cccc(/C=N/Nc2ncnc(Cl)c2N)c1O | > 26 µM (inactive)
CCOC(=O)COc1ccc2ccccc2c1/C=C/[N+](=O)[O-] | > 26 µM (inactive)
O=C(CC1CC2CCC1C2)NCCc1ccc(Cl)cc1 (stereo unspecified) | > 26 µM (inactive)
Cc1ccc2cc(C3C(C#N)=C(N)Oc4c3ccc3cccnc43)c(=O)[nH]c2c1 (stereo unspecified) | > 26 µM (inactive)
CCn1c(-c2ccc(N(C)C)cc2)nc2ccccc21 | > 26 µM (inactive)
Cc1ccc(O)c(/C=N/NC(=O)c2[nH]ncc2Br)c1 | > 26 µM (inactive)
Cc1ccc(C)c(NC(=O)c2ccccc2NS(=O)(=O)c2cc([N+](=O)[O-])ccc2C)c1 | > 26 µM (inactive)
CC(=O)Nc1ccc(S(=O)(=O)Nc2ccc(N3CCCCC3)cc2)cc1 | > 26 µM (inactive)
CNC(=O)c1sc(N2N=C3/C(=C/c4ccccc4)CCCC3C2c2ccccc2)nc1C (stereo unspecified) | > 26 µM (inactive)
CCN1CCN(Cc2ccc(NC(=O)c3cc(NC(=O)C(=O)c4c[nH]c5ccccc45)cc(OC)c3)cc2C(F)(F)F)CC1 | > 26 µM (inactive)
O=C(c1cc(-c2cccc(Cl)c2)nc2ccccc12)N1CCN(c2ccccn2)CC1 | > 26 µM (inactive)
